The record followed here is US9173843B2, “Crystalline active ingredient microparticles, method for producing the same and use thereof in drugs” (Jesalis Pharma GMBH, priority 2008, dated 2015).

Data set [1] in a line: grain size distribution by laser diffraction (Sympatec Helos, RODOS dry disperser). The class given is physicochemical. Conditions: vol. % of particles smaller than value. The method, then:
The particle size distribution (grain size distribution) is measured by means of a laser diffraction, which provides a distribution curve of the particle sizes (System Sympatec Helos, RODOS dry disperser). dx means that x volume percent (vol. %) of the particles have a diameter that is smaller than the stated value. Thus, at a d50 value of 1 μm, 50 vol. % of the particles have a diameter smaller than 1 μm (micrometer). When the d10, d99 or d100 is 2 μm, 10, 99 or 100 vol. % of the particles have a diameter smaller than 2 μm.
A 100-ml stirred vessel with blade stirrer is charged with 160 g of Y-stabilized zirconium oxide spheres with a diameter of 0.5 mm plus 30 ml water. A solution of 1.5 g drospirenone in 6.25 ml ethanol/water 4:1 (v/v) is added, with stirring. After precipitation of a mainly amorphous phase, transformation to the crystalline modification begins after approximately 2 min. This is completed after 10 to 15 min. After completion of the phase transformation, a solution of 4.5 g drospirenone in 18.75 ml ethanol/water 4:1 (v/v) and in the same ratio 90 ml water is added dropwise within 15 min, with stirring at 1500 rpm. Simultaneously, with approximately constant filling level, product suspension is drawn off. Addition and product withdrawal can also take place quasicontinuously in smaller portions without any adverse effect on the result, if the above time frame is maintained. After the end of addition, to make the yield complete, approx. 60 ml water is used for rinsing. Alternatively, the suspension in the crystallizer can also be left as starting suspension for the next batch. Altogether, 200 g of suspension is obtained, with a solids content of 25 mg per ml. Approximately 15 ml of this suspension is filtered on a G4 frit and the solid is air-dried. The grain size distribution of the dried substance is determined by laser diffraction (Sympatec Helos, RODOS dispersing system).
Granulometric analysis is carried out by laser diffraction (Sympatec Helos, RODOS dispersing system):
Granulometric analysis was carried out by laser diffraction (Sympatec Helos, RODOS dispersing system, dispersing pressure 5 bar).

A short description of data set [2]: solubility kinetics by the paddle method (dissolved fraction by HPLC). The following applies: 900 ml water, 37° C., 150 rpm; micronizate pre-dispersed in 2 ml PVP-containing solution. In kind it is physicochemical. As to the method:
14 mg of the solid form with Methocel E5 as excipient according to Example 2 with a content of active substance of 21.5 wt. % (equivalent to 3 mg drospirenone) is added to 900 ml water, at 37° C. and stirred at 150 rpm with a blade stirrer. A blind sample (starting value) and samples at 5, 10, 20, 30, and 60 min are taken, filtered in a 0.2 μm syringe filter and the dissolved fraction of drospirenone is determined by HPLC. A conventional micronizate (jet mill) serves as comparison. So that the dissolution behavior of the primary grains of the micronizate is assessed exclusively, wetting and agglomeration effects must be avoided. Therefore, before it was added to the 900 ml of water, the micronizate was dispersed in 2 ml of a PVP-containing solution. The process of release of the particles from the solid form and the subsequent process of dissolution are completed after 5 min, whereas with the conventional micronizate, even with perfect wetting and dispersion of the particles, still almost 30% of the active substance is undissolved after 5 min.

In the case of `C[C@]12CCC(=O)C=C1[C@@H]1C[C@@H]1[C@H]1[C@@H]3[C@@H]4C[C@@H]4[C@@]4(CCC(=O)O4)[C@@]3(C)CC[C@@H]12` [Example 1, drospirenone], in data set [1], the “d16 (grain size distribution)” value is on record as 0.52 μm, the “d50 (grain size distribution)” value worked out at 1.48 μm, the “d99 (grain size distribution)” value was 4.63 μm and the “d100 (grain size distribution)” value is 6.00 μm.

With `C[C@]12CCC(=O)C=C1[C@@H]1C[C@@H]1[C@H]1[C@@H]3[C@@H]4C[C@@H]4[C@@]4(CCC(=O)O4)[C@@]3(C)CC[C@@H]12` [conventional micronizate, drospirenone], the “active substance undissolved after 5 min” value in data set [2] is listed as around 30%.
